Experimental data published in patent US12780800B1, “Triazole-pyridinyl substituted azacyclohexyl acetic acid compounds as LPA receptor antagonists” (Viva Star Biosciences Limited, priority 2021, dated 2022).

molecular target: T1, LPA1 (Homo sapiens, UniProt Q92633); experiment: LPA1 calcium flux assay (LPA1 functional antagonist assay); format: cell-based; details: PathHunter CHO-K1 EDG2 β-Arrestin cell line; calcium indicator dye; stimulated with EC80 concentration of LPA; FLIPR Tetra
T1 construct: ProLink (PK) beta-galactosidase enzyme-fragment tag; host or cells: CHO-K1
T1 sequence (Q92633 whole entry, the tested form may be a part): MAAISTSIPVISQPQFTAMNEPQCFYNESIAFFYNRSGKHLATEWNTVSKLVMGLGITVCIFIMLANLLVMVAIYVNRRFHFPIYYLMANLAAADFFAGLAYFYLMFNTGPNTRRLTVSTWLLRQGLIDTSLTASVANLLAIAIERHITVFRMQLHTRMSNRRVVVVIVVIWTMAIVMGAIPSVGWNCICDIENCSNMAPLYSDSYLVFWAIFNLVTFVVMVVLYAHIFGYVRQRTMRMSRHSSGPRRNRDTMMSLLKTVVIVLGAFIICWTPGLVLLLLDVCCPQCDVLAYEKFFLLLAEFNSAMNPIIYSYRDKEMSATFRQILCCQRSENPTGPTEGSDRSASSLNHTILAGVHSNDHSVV
Description: Following overnight culture, cells were loaded with calcium indicator dye from the HitHunter Calcium No WashPLUS Assay kit (Eurofins DiscoverX Corporation, Cat #93-0091) for 45 minutes at 37° C. […] After compound addition, assay plates were equilibrated to room temperature for 30 minutes. […] IC50 values were determined by Chemical and Biological Information System from ChemInnovation Software, Inc. The compounds of this invention were tested for their activity to inhibit LPA1 as determined in an LPA1 functional antagonist assay as described herein.

Row | SMILES | IC50 [nM]
1 | CCCc1ccc(=O)n(Cc2c(-c3ncc(N4C[C@@H](CC(=O)O)CC(F)(F)C4)c(CC)n3)cnn2C)c1 [Example 37, (S)-2-(1-(4-ethyl-2-(1-methyl-5-((2-oxo-5-propylpyridin-1(2H)-yl)methyl)-1H-pyrazol-4-yl)pyrimidin-5-yl)-5,5-difluoropiperidin-3-yl)acetic acid] | > 5000
2 | Cn1nnc(-c2ccc(N3CCC[C@H](CC(=O)O)C3)c(C(F)(F)F)n2)c1Cn1cc(C2CC2)ccc1=O [Example 59, (R)-2-(1-(6-(5-((5-cyclopropyl-2-oxopyridin-1(2H)-yl)methyl)-1-methyl-1H-1,2,3-triazol-4-yl)-2-(trifluoromethyl)pyridin-3-yl)piperidin-3-yl)acetic acid] | < 100
3 | CCCc1ccc(=O)n(Cc2c(-c3ccc(N4CCC[C@@H](CC(=O)O)C4)c(C#N)n3)nnn2C)c1 [Example 51, (S)-2-(1-(2-cyano-6-(1-methyl-5-((2-oxo-5-propylpyridin-1(2H)-yl)methyl)-1H-1,2,3-triazol-4-yl)pyridin-3-yl)piperidin-3-yl)acetic acid] | > 5000
4 | CCc1nc(-c2nnn(C)c2Cn2nnc(CC3CC3)n2)ccc1N1C[C@@H](CC(=O)O)CC(F)(F)C1 [Example 137, 2-[(3S)-1-[6-(5-{[5-(cyclopropylmethyl)-2H-1,2,3,4-tetrazol-2-yl]methyl}-1-methyl-1H-1,2,3-triazol-4-yl)-2-ethylpyridin-3-yl]-5,5-difluoropiperidin-3-yl]acetic acid] | 100 to 500
5 | CCc1nc(-c2nnn(C)c2Cn2ccc(CC3CC3)c(C)c2=O)ccc1N1C[C@H](CC(=O)O)CC(F)(F)C1 [Example 11, (R)-2-(1-(6-(5-((4-(cyclopropylmethyl)-3-methyl-2-oxopyridin-1(2H)-yl)methyl)-1-methyl-1H-1,2,3-triazol-4-yl)-2-ethylpyridin-3-yl)-5,5-difluoropiperidin-3-yl)acetic acid] | > 5000
6 | CCc1nc(-c2nnn(C)c2Cn2cc(CC(C)C)ccc2=O)ccc1N1C[C@@H](CC(=O)O)CC(F)(F)C1 [Example 12, (S)-2-(1-(2-ethyl-6-(5-((5-isobutyl-2-oxopyridin-1(2H)-yl)methyl)-l-methyl-1H-1,2,3-triazol-4-yl)pyridin-3-yl)-5,5-difluoropiperidin-3-y)acetic acid] | < 100
7 | CCCc1cccn(Cc2c(-c3ccc(N4C[C@@H](CC(=O)O)CC(F)(F)C4)c(C)n3)nnn2C)c1=O [Example 5, (S)-2-(5,5-difluoro-1-(2-methyl-6-(1-methyl-5-((2-oxo-3-propylpyridin-1(2H)-yl)methyl)-1H-1,2,3-triazol-4-yl)pyridin-3-yl)piperidin-3-yl)acetic acid] | > 5000
8 | CCc1nc(-c2nnn(C)c2Cn2cc(C3CC3)ccc2=O)ccc1N1C[C@@H](CC(=O)O)CC(F)(F)C1 [Example 15, (S)-2-(1-(6-(5-((5-cyclopropyl-2-oxopyridin-1(2H)-yl)methyl)-1-methyl-1H-1,2,3-triazol-4-yl)-2-ethylpyridin-3-yl)-5,5-difluoropiperidin-3-yl)acetic acid] | < 100
9 | Cc1nc(-c2nnn(C)c2COc2nccc(C(C)C)n2)ccc1N1C[C@@H](CC(=O)O)CC(F)(F)C1 [Example 77, (S)-2-(5,5-difluoro-1-(6-(5-(((4-isopropylpyrimidin-2-yl)oxy)methyl)-1-methyl-1H-1,2,3-triazol-4-yl)-2-methylpyridin-3-yl)piperidin-3-yl)acetic acid] | 100 to 500
10 | CCc1nc(-c2nnn(C)c2COc2ncnn2CC(C)C)ccc1N1C[C@@H](CC(=O)O)CC(F)(F)C1 [Example 123, (S)-2-(1-(2-ethyl-6-(5-(((1-isobutyl-1H-1,2,4-triazol-5-yl)oxy)methyl)-1-methyl-1H-1,2,3-triazol-4-yl)pyridin-3-yl)-5,5-difluoropiperidin-3-yl)acetic acid] | 100 to 500
11 | CCc1nc(-c2nnn(C)c2COc2cnn(CC3CC3)n2)ccc1N1C[C@@H](CC(=O)O)CC(F)(F)C1 [Example 127] | 100 to 500
12 | CCc1nc(-c2nnn(C)c2CNc2nccc(C3CC3)n2)ccc1CN1CC(C(=O)O)CC(F)(F)C1 (centres unmarked) [Example 151, 1-((6-(5-(((4-cyclopropylpyrimidin-2-yl)amino)methyl)-1-methyl-1H-1,2,3-triazol-4-yl)-2-ethylpyridin-3-yl)methyl)-5,5-difluoropiperidine-3-carboxylic acid] | 500 to 5000
13 | CCCn1ccc(=O)c(OCc2c(-c3ccc(N4C[C@@H](CC(=O)O)CC(F)(F)C4)c(CC)n3)nnn2C)c1 [Example 107, (S)-2-(1-(2-ethyl-6-(1-methyl-5-(((4-oxo-1-propyl-1,4-dihydropyridin-3-yl)oxy)methyl)-1H-1,2,3-triazol-4-yl)pyridin-3-yl)-5,5-difluoropiperidin-3-yl)acetic acid] | > 5000
14 | CCCc1ccc(=O)n(Cc2c(-c3ccc(N4CCC[C@H](CC(=O)O)C4)c(C(F)F)n3)nnn2C)c1 [Example 60, (R)-2-(1-(2-(difluoromethyl)-6-(1-methyl-5-((2-oxo-5-propylpyridin-1(2H)-yl)methyl)-1H-1,2,3-triazol-4-yl)pyridin-3-yl)piperidin-3-yl)acetic acid] | < 100
15 | CCCc1cnc(=O)n(Cc2c(-c3ncc(N4C[C@@H](CC(=O)O)CC(F)(F)C4)c(CC)n3)cnn2C)c1 [Example 38, (S)-2-(1-(4-ethyl-2-(1-methyl-5-((2-oxo-5-propylpyrimidin-1(2H)-yl)methyl)-1H-pyrazol-4-yl)pyrimidin-5-yl)-5,5-difluoropiperidin-3-yl)acetic acid] | > 5000
16 | CCc1nc(-c2cnn(C)c2Cn2ncc(CC3CC3)n2)ncc1N1C[C@@H](CC(=O)O)CC(F)(F)C1 [Example 136, (S)-2-(1-(2-(5-((4-(cyclopropylmethyl)-2H-1,2,3-triazol-2-yl)methyl)-1-methyl-1H-pyrazol-4-yl)-4-ethylpyrimidin-5-yl)-5,5-difluoropiperidin-3-yl)acetic acid] | 100 to 500
17 | CCc1nc(-c2nnn(C)c2Cn2nc(C3CC3)ccc2=O)ccc1N1C[C@@H](CC(=O)O)CC(F)(F)C1 [Example 36, (S)2-(1-(6-(5-((3-cyclopropyl-6-oxopyridazin-1(6H)-yl)methyl)-1-methyl-1H-1,2,3-triazol-4-yl)-2-ethylpyridin-3-yl)-5,5-difluoropiperidin-3-yl)acetic acid] | 100 to 500
18 | CCc1nc(-c2nnn(C)c2Cn2ccc(C#CC3CC3)cc2=O)ccc1N1C[C@@H](CC(=O)O)CC(F)(F)C1 [Example 20, (S)-2-(1-(6-(5-((4-(cyclopropylethynyl)-2-oxopyridin-1(2H)-yl)methyl)-1-methyl-1H-1,2,3-triazol-4-yl)-2-ethylpyridin-3-yl)-5,5-difluoropiperidin-3-yl)acetic acid] | > 5000
19 | CCCc1ccc(=O)n(Cc2c(-c3ccc(N4CCCC(CC(=O)O)C4=O)c(CC)n3)nnn2C)c1 (single isomer, unassigned) [Example 52, (R) or (S)-2-(1-(2-ethyl-6-(1-methyl-5-((2-oxo-5-propylpyridin-1(2H)-yl)methyl)-1H-1,2,3-triazol-4-yl)pyridin-3-yl)-2-oxopiperidin-3-yl)acetic acid] | 500 to 5000
20 | CCCc1ccc(=O)n(Cc2c(-c3ccc(N4C[C@@H](CC(=O)O)CC(F)(F)C4)c(C#N)n3)nnn2C)c1 [Example 49, (S)-2-(1-(2-cyano-6-(1-methyl-5-((2-oxo-5-propylpyridin-1(2H)-yl)methyl)-1H-1,2,3-triazol-4-yl)pyridin-3-yl)-5,5-difluoropiperidin-3-yl)acetic acid] | > 5000
21 | CCCc1ccc(=O)n(Cc2c(-c3ccc(N4C[C@@H](CC(=O)O)CC(F)(F)C4)c(CC)n3)nnn2C)c1 [Example 6, (S)-2-(1-(2-ethyl-6-(1-methyl-5-((2-oxo-5-propylpyridin-1(2H)-yl)methyl)-1 H-1,2,3-triazol-4-yl)pyridin-3-yl)-5,5-difluoropiperidin-3-yl)acetic acid] | < 100
22 | Cn1nnc(-c2ccc(N3CCC[C@H](CC(=O)O)C3)c(C(F)F)n2)c1Cn1cc(CC2CC2)nn1 [Example 169, (R)-2-(1-(6-(5-((4-(cyclopropylmethyl)-1H-1,2,3-triazol-1-yl)methyl)-1-methyl-1H-1,2,3-triazol-4-yl)-2-(difluoromethyl)pyridin-3-yl)piperidin-3-yl)acetic acid] | 100 to 500
23 | CCc1nc(-c2nnn(C)c2Cn2cc(C)c(C3CC3)cc2=O)ccc1N1C[C@@H](CC(=O)O)CC(F)(F)C1 [Example 19, (S)-2-(1-(6-(5-((4-cyclopropyl-5-methyl-2-oxopyridin-1(2H)-yl)methyl)-1-methyl-1H-1,2,3-triazol-4-yl)-2-ethylpyridin-3-yl)-5,5-difluoropiperidin-3-yl)acetic acid] | > 5000
24 | CCc1nc(-c2nnn(C)c2COc2nnn(CC(C)C)n2)ccc1N1C[C@@H](CC(=O)O)CC(F)(F)C1 [Example 124, (S)-2-(1-(2-ethyl-6-(5-(((2-isobutyl-2H-tetrazol-5-yl)oxy)methyl)-1-methyl-1H-1,2,3-triazol-4-yl)pyridin-3-yl)-5,5-difluoropiperidin-3-yl)acetic acid] | < 100
25 | CCCc1ccc(=O)n(Cc2c(-c3ccc(N4CCO[C@H](CC(=O)O)C4)c(CC)n3)nnn2C)c1 [Example 172, 2-[(2R)-4-(2-ethyl-6-{1-methyl-5-[(2-oxo-5-propyl-1,2-dihydropyridin-1-yl)methyl]-1H-1,2,3-triazol-4-yl}pyridin-3-yl)morpholin-2-yl]acetic acid] | 500 to 5000
26 | CCc1nc(-c2nnn(C)c2COc2nccc(C3CCC3)n2)ccc1N1CCOC(CC(=O)O)C1 (centres unmarked) [Example 171, 2-(4-(6-(5-(((4-cyclobutylpyrimidin-2-yl)oxy)methyl)-1-methyl-1H-1,2,3-triazol-4-yl)-2-ethylpyridin-3-yl)morpholin-2-yl)acetic acid] | < 100
